Data taken from the NIST ThermoML archive (doi:10.1016/j.tca.2016.05.006).
Numbers after ± are expanded uncertainties.

Conditions: 298.15 K, 101.33 kPa, Liquid

electrical conductivity (Alternating current cell with electrodes): 9.2e-05 ± 2e-06 S/m
thermal conductivity (Transient line heat source): 0.2438 ± 0.011 W/m/K
SMILES: OCCO [1,2-ethanediol]
